{"source": "patent US6579899B1", "about": "“Composition for treatment of stress” (Massachusetts Institute of Technology, priority 1998, dated 2003)", "key": {"[1]": {"test_system": "rats", "conditions": "Rowland et al.; cited from earlier work"}, "[2]": {"test_system": "obese, stressed patients", "experiment": "questionnaire rating appetite and hunger", "assay_type": "in vivo, human", "set-up": "Appetite and Cravings: scale not given here", "excerpt": "(§1) A subgroup of obese individuals is identified, which individuals describe themselves as being unable to control their eating and who attempt to continue on a weight-reducing diet when experiencing emotional distress. […]\n(§2) Objective measurements of emotional distress are made in some patients using the CES-D (Center for […] Depression Form) test, which measures current levels of emotional distress (Radloff, et al., The CES-D Scale: A Self Report Depression Scale for Research in the General Population Applied Psychological Measurement 1: 385-401, 1977); and the POMS (Profile of Mood States test, that assesses tension, depression, anger and confusion (McNair, et al., Profile of Mood States Manual;San Diego: Educational and Industrial Testing Service, 1971); both of these references are hereby incorporated by reference in their entirety. These tests are also given monthly during the treatment period. At the same time, patients also complete questionnaires that ask the patients to rate their appetite and hunger, and also to rate their tendency to eat in response to a variety of emotional and stressful triggers. The patients are also weighed monthly."}, "[3]": {"test_system": "obese, stressed patients", "experiment": "CES-D test of current levels of emotional distress in patients", "assay_type": "in vivo, human", "excerpt": "as §1, §2"}, "[4]": {"test_system": "obese, stressed patients", "experiment": "questionnaire rating tendency to eat in response to emotional and stressful triggers", "assay_type": "in vivo, human", "set-up": "Emotional Triggers: scale not given here", "excerpt": "as §1, §2"}, "[5]": {"test_system": "patient experiencing stress induced symptoms", "experiment": "treatment of patients with stress induced symptoms with serotonin precursors (Examples 16-23)", "assay_type": "in vivo, human", "conditions": "in conjunction with a stimulant of serotonin synthesis"}, "[6]": {"experiment": "body weight in four month weight loss program", "assay_type": "in vivo, human", "conditions": "for weight at the end of 4 months: patient four, 20 rising to 80 mg/day; for weight after 4 months: patient one, 900 mg/day", "excerpt": "as §1, §2"}}, "note": "Where a name gives a salt, the structure may show the parent alone.", "data": [{"smiles": "CCNC(C)Cc1cccc(C(F)(F)F)c1", "note": "(racemic) [D,L-fenfluramine, N-ethyl-α-methyl-3-(trifluoro-methyl)benzeneethanamine]", "values": [{"measurement": "tail pressure/tail pinch-induced eating", "setting": "[1]", "value": "inhibits tail pressure-induced eating"}, {"measurement": "Appetite and Cravings", "setting": "[2]; patient six, 30 mg/day, Month 1, baseline 10", "value": 2}, {"measurement": "Appetite and Cravings", "setting": "[2]; patient six, 30 mg/day, Month 2, baseline 10", "value": 5}, {"measurement": "Appetite and Cravings", "setting": "[2]; patient six, 30 mg/day, Month 3, baseline 10", "value": 5}, {"measurement": "Appetite and Cravings", "setting": "[2]; patient six, 30 mg/day, Month 4, baseline 10", "value": 4}, {"measurement": "Mood Scores CES-D", "setting": "[3]; patient six, 30 mg/day, Month 1, baseline 5", "value": 1}, {"measurement": "Mood Scores CES-D", "setting": "[3]; patient six, 30 mg/day, Month 2, baseline 5", "value": 3}, {"measurement": "Mood Scores CES-D", "setting": "[3]; patient six, 30 mg/day, Month 3, baseline 5", "value": 2}, {"measurement": "Mood Scores CES-D", "setting": "[3]; patient six, 30 mg/day, Month 4, baseline 5", "value": 1}, {"measurement": "Emotional Triggers", "setting": "[4]; patient six, 30 mg/day, Month 1, baseline 23", "value": 2}, {"measurement": "Emotional Triggers", "setting": "[4]; patient six, 30 mg/day, Month 2, baseline 23", "value": 3}, {"measurement": "Emotional Triggers", "setting": "[4]; patient six, 30 mg/day, Month 3, baseline 23", "value": 2}, {"measurement": "Emotional Triggers", "setting": "[4]; patient six, 30 mg/day, Month 4, baseline 23", "value": 4}]}, {"smiles": "N[C@@H](Cc1c[nH]c2ccccc12)C(=O)O", "note": "[L-tryptophan]", "values": [{"measurement": "stress induced fatigue", "setting": "[5]; Example 18, functional food", "value": "reduced fatigue"}, {"measurement": "stress as indicated by CES-D Mood Score and emotional triggers score", "setting": "[5]; Example 22, functional food", "value": "reduced stress"}, {"measurement": "stress induced neck and back pain", "setting": "[5]; Example 22, functional food", "value": "reduced back and neck pain"}]}, {"smiles": "CNCCC(Oc1ccc(C(F)(F)F)cc1)c1ccccc1", "note": "(centres unmarked) [fluoxetine hydrochloride]", "values": [{"measurement": "weight at the end of 4 months", "setting": "[6]; starting weight 83.2 kg", "value": 78.2, "unit": "kg"}, {"measurement": "weight at the end of 4 months", "setting": "[6]; starting weight 183 pounds", "value": 172, "unit": "pounds"}, {"measurement": "Appetite and Cravings", "setting": "[2]; patient four, 20 rising to 80 mg/day, Month 1, baseline 17", "value": 6}, {"measurement": "Appetite and Cravings", "setting": "[2]; patient four, 20 rising to 80 mg/day, Month 2, baseline 17", "value": 9}, {"measurement": "Appetite and Cravings", "setting": "[2]; patient four, 20 rising to 80 mg/day, Month 3, baseline 17", "value": 3}, {"measurement": "Appetite and Cravings", "setting": "[2]; patient four, 20 rising to 80 mg/day, Month 4, baseline 17", "value": 4}, {"measurement": "Mood Scores CES-D", "setting": "[3]; patient four, 20 rising to 80 mg/day, Month 1, baseline 15", "value": 10}, {"measurement": "Mood Scores CES-D", "setting": "[3]; patient four, 20 rising to 80 mg/day, Month 2, baseline 15", "value": 2}, {"measurement": "Mood Scores CES-D", "setting": "[3]; patient four, 20 rising to 80 mg/day, Month 3, baseline 15", "value": 6}, {"measurement": "Mood Scores CES-D", "setting": "[3]; patient four, 20 rising to 80 mg/day, Month 4, baseline 15", "value": 7}, {"measurement": "Emotional Triggers", "setting": "[4]; patient four, 20 rising to 80 mg/day, Month 1, baseline 31", "value": 22}, {"measurement": "Emotional Triggers", "setting": "[4]; patient four, 20 rising to 80 mg/day, Month 2, baseline 31", "value": 13}, {"measurement": "Emotional Triggers", "setting": "[4]; patient four, 20 rising to 80 mg/day, Month 3, baseline 31", "value": 10}, {"measurement": "Emotional Triggers", "setting": "[4]; patient four, 20 rising to 80 mg/day, Month 4, baseline 31", "value": 12}]}, {"smiles": "O=C([O-])[O-].[Li+].[Li+]", "note": "[lithium carbonate]", "values": [{"measurement": "weight after 4 months", "setting": "[6]; starting weight 111.8 kg", "value": 102.3, "unit": "kg"}, {"measurement": "weight after 4 months", "setting": "[6]; starting weight 246 pounds", "value": 225, "unit": "pounds"}, {"measurement": "Appetite and Cravings", "setting": "[2]; patient one, 900 mg/day, Month 1, baseline 14", "value": 6}, {"measurement": "Appetite and Cravings", "setting": "[2]; patient one, 900 mg/day, Month 2, baseline 14", "value": 9}, {"measurement": "Appetite and Cravings", "setting": "[2]; patient one, 900 mg/day, Month 3, baseline 14", "value": 5}, {"measurement": "Appetite and Cravings", "setting": "[2]; patient one, 900 mg/day, Month 4, baseline 14", "value": 3}, {"measurement": "Mood Scores CES-D", "setting": "[3]; patient one, 900 mg/day, Month 1, baseline 4", "value": 3}, {"measurement": "Mood Scores CES-D", "setting": "[3]; patient one, 900 mg/day, Month 2, baseline 4", "value": 3}, {"measurement": "Mood Scores CES-D", "setting": "[3]; patient one, 900 mg/day, Month 3, baseline 4", "value": 2}, {"measurement": "Mood Scores CES-D", "setting": "[3]; patient one, 900 mg/day, Month 4, baseline 4", "value": 2}, {"measurement": "Emotional Triggers", "setting": "[4]; patient one, 900 mg/day, Month 1, baseline 15", "value": 16}, {"measurement": "Emotional Triggers", "setting": "[4]; patient one, 900 mg/day, Month 2, baseline 15", "value": 10}, {"measurement": "Emotional Triggers", "setting": "[4]; patient one, 900 mg/day, Month 3, baseline 15", "value": 6}, {"measurement": "Emotional Triggers", "setting": "[4]; patient one, 900 mg/day, Month 4, baseline 15", "value": 7}]}]}
